Source: ChEMBL document CHEMBL1121918, “Synthesis and pharmacological evaluation of poly(oxyethylene) derivatives of 4-isobutylphenyl-2-propionic acid (ibuprofen)” (J Med Chem, 1981)

Test: Lethal dose in mice when administered orally
Format: toxicity, organism-based
Settings: mouse, in vivo, po

Q: Which LD50 does the source give for `CC(C)Cc1ccc(C(C)C(=O)OCCOCCOCCOCCO)cc1` (stereo not drawn) here?
A: Its LD50 is greater than 2000 mg/kg.

Q: For `CC(C)Cc1ccc(C(C)C(=O)OCCOCCOCCOCCOCCOCCOCCOCCOCCOCCOCCOCCOCCOCCOCCOCCOCCOCCOCCOCCOCCOCCOCCOCCOCCOCCOCCOCCOCCOCCOCCOCCOCCOCCOCCOCCOCCOCCOCCOCCOCCOCCOCCOCCOCCOC(=O)C(C)c2ccc(CC(C)C)cc2)cc1` (stereo not drawn), which LD50 is on record?
A: Its LD50 is greater than 2000 mg/kg.

Q: For `CC(C)Cc1ccc(C(C)C(=O)OCCOCCOCCOCCOCCOCCOCCOCCOCCOCCOCCOCCOCCOCCOCCOCCOCCOCCOCCOCCOC(=O)C(C)c2ccc(CC(C)C)cc2)cc1` (stereo not drawn), which LD50 is on record?
A: The LD50 was greater than 2000 mg/kg.
